Test results as given in patent US20160368992A1, “A METHOD OF INCREASING GIPCR SIGNALIZATION IN THE CELLS OF A SCOLIOTIC SUBJECT” (CHU SAINTE-JUSTINE, priority 2013, published 2016).

Columns and labels:
GiPCR signaling [1] = test: GiPCR signaling after LPA stimulation in osteoblasts of AIS patients (CD44 CT SNP) and healthy controls in the presence of rOPN; assay type: cell-based, human; settings: same rOPN treatment
Protocol: Next, the effect of the CT SNP on GiPCR signaling was assessed. Osteoblasts from severe AIS patients (who underwent surgery) carrying the CT SNP and osteoblasts from healthy controls with wild type CD44 (CC) were stimulated with LPA in the presence of recombinant OPN (rOPN). The GiPCR defective signaling effect in response to the same rOPN treatment was […] 50% more in mutated CD44 (CT) osteoblasts as compared to in wild type CD44 (CC) osteoblasts (FIG. 9 A). […] The CT mutation in CD44 thus increases the sensitivity of scoliotic patients to the damaging effects of OPN on GiPCR signaling and thereby contributes the more severe phenotype observed in these subjects.

GiPCR signaling [2] = test: CDS integrated response to GiPCR ligands in MC3T3-E1 osteoblastic cell line; assay type: cell-based; settings: MC3T3-E1 cells treated with rOPN prior to stimulation
Protocol: The functional evaluation of Gi, Gs and Gq proteins was assessed by CDS assays using osteoblasts cells derived from C57Bl/6j WT and C57Bl/6j OPN^−/− mice (bipedal and quadrupedal) using CellKey™ apparatus, as previously described (Akoume et al., 2010, and WO 2010/040234 to Moreau et al.).
MC3T3-E1 cells were used to check the effect of the knockdown of OPN and its receptors. MC3T3-E1 osteoblasts cells were transiently transfected in serum-free medium, using Lipofectamine™ RNAiMAX reagent (Invitrogen) according to the manufacturer's instructions and functional experiments were performed 48 h post transfection. The sequence of RNA oligonucleotides used for the knockdown of different genes are, ssp1 (encodes OPN) (CCACAGCCACAAGCAGUCCAGAUUA (SEQ ID NO: 9)), integrin β1 (CCUAAGUCAGCAGUAGGAACAUUAU (SEQ ID NO: 10)), integrin β3 (CCUCCAGCUCAUUGUUGAUGCUUAU (SEQ ID NO: 11)), integrin α5 (CCGAGUACCUGAUCAACCUGGUUCA (SEQ ID NO: 12)), integrin α8 (GAGAUGAAACUGAAUUCCGAGAUAA (SEQ ID NO: 13)), integrin αv (GACUGUUGAGUAUGCUCCAUGUAGA (SEQ ID NO: 14 and CD44 (GAACAAGGAGUCGUCAGAAACUCCA (SEQ ID NO: 15)). Two other siRNAs against integrin α5 were tested (UCCACCAUGUCUAUGAGCUCAUCAA (SEQ ID NO:16) and UCAGGAGCAGAUUGCAGAAUCUUAU (SEQ ID NO:17)).
To further investigate the role of OPN in Gi protein-mediated receptor signaling, several lines of experiments were performed using MC3T3-E1 osteoblastic cell line. Since these cells express OPN, was first examined whether depletion of OPN by siRNA influences the capacity of GiPCR ligands to induce cell signaling as measured by CDS in MC3T3-E1 cells. […] Similar results were obtained when cells were stimulated with oxymethazolin. […] To confirm this hypothesis, cells were treated with exogenous recombinant OPN (rOPN) prior to DAMGO and oxymethazolin stimulation.

Gi1, Gi2, Gi3 proteins = test: Immunoprecipitation/Western blot: phosphorylation of Gi proteins in MC3T3-E1 cells; assay type: cell-based; settings: rOPN vs PBS
Protocol: Given that the defective GiPCR signaling associated with idiopathic scoliosis has causatively been related to increased phosphorylation of Gi proteins (Moreau et al., 2004), it was of interest to examined whether OPN influences the phosphorylation status of Gi proteins. Accordingly, MC3T3-E1 cells were treated with rOPN, then cell lysates were immunoprecipitated with antibodies against Gi1, Gi2 or Gi3 protein isoforms, and the phosphorylation level was examined by Western blot using anti-phospho serine/threonine or anti-tyrosine antibodies. […] However, band density was higher in OPN-treated cells.
To support the involvement of α5β1 integrin in this process, cells were pre-treated with antibody against α5β1 integrin prior to rOPN treatment.
Cell extracts prepared from MC3T3-E1 that had been treated with rOPN in the presence or absence of an inhibitor specific for each kinase were subjected to immunoprecipitation and Western blot analysis. […] However, both serine and tyrosine phosphorylation were attenuated by inhibitors of FAK (FAK inhibitor-14), Scr (PP2), CaMKII (KN93), PI3K (wortmannin-data not shown), MEK (PD98059), ERK1/2 (FR180204), JNK (SP60125) and P38 (SB203580).

[3] = tested on: MOR, LPA1R, MT2R receptors and Gi1, Gi2, Gi3 proteins; test: Western blot and qPCR for expression of GPCRs and Gi protein isoforms in MC3T3-E1 cells; assay type: cell-based
Protocol: Thermo-Script™ reverse transcriptase (Invitrogen) was used to reverse transcribe mRNA into cDNA ([…] total concentration). Several dilutions were tested to choose the concentration that yielded the most efficient amplification. The human primers used were the following: […]
Each amplification was performed in duplicate using […] of diluted cDNA, […] of 3 mM primer solution and […] of 2× QuantiTect™ SYBR Green PCR Master Mix (QIAGEN Inc, Ontario, Canada). All reaction mixes were run on Mx3000P™ system from Stratagene (Agilent Technologies Company, La Jolla, Calif.) and analyzed with MxPro™ QPCR Software also from Stratagene. Relative quantification was calculated with the delta CT method using β-actin as the endogenous control.
Gi proteins isoforms expression levels were determined using Western blot technique. MC3T3-E1 cells were treated with PBS or rOPN 0.5 μg/ml overnight (R&D systems Inc., Minneapolis, USA). These cells were washed with cold PBS 1× then lysed in RIPA buffer (25 mM Tris.Hcl pH7.4, 150 mM NaCl, 1% NP-40, 1% sodium deoxycholate, 0.1% SDS) added with 5 mM NaVO4 and protease inhibitor cocktail (Roche molecular Biochemicals, Mannheim, Germany). Immunoblots were performed with primary antibodies directed specifically against Gi1, Gi2, Gi3, Gs, Phosphoserine, integrin β1 (Santa Cruz Biotechnology, Santa Cruz, Calif.), Mu opioid receptor (MOR) (abcam Toronto, ON, Canada), Lysophosphatidic acid receptor 1 (LPAR1) (assaybiotech Inc., USA), melatonin receptor 2 (MT2) and peroxidase-conjugated secondary antibody. […]
Given that the level of GPCRs is critical for their signaling, it was of interest to examine whether the defective GiPCR signaling induced by OPN is the consequence of a quantitative reduction of these receptors. For this purpose, MC3T3-E1 cells were treated with PBS or rOPN and the cell lysates were analyzed by Western blot for the expression of three different GPCRs; including mu-opioid (MOR), lysophosphatidic acid type 1 (LPA1R) and melatonin type 2 (MT2R) receptors. […]

Substance: rOPN: exogenous recombinant osteopontin (R&D systems)
- additional reduction of GiPCR signaling in mutated CD44 (CT) vs wild type CD44 (CC) osteoblasts (GiPCR signaling [1]): 50%
- integrated response to DAMGO and oxymethazolin after rOPN treatment (GiPCR signaling [2]): decrease in the integrated response in a concentration-dependent manner
- phosphorylated serine and tyrosine residues in Gi precipitates (band density) (Gi1, Gi2, Gi3 proteins): higher
- level of MOR, LPA1R and MT2R receptors ([3]; Western blot, rOPN vs PBS): not modified
- quantity of Gi proteins (Gi1, Gi2, Gi3) ([3]; immunoblotting, relative to PBS-treated cells): no significant effect
- mRNA expression of Gi isoforms ([3]; qPCR, PBS- vs rOPN-treated cells): no significant difference
